From patent publication US20150352026A1, “COMPOSITION FOR INCREASING OF THE EFFECTIVENESS OF UV-B THERAPY, PROCESS FOR THE PREPARATION THEREOF, AND ITS USE” (GLOBALDERM KOZMETOLÓGIAI KORLÁTOLT FELELÖSSÉGÜ TÁRSASÁG, priority 2013, published 2015)

Test: Optical transmittance spectrum (Helios spectrophotometer, 200-600 nm)
Format: physicochemical
Details: sharp decrease around 300 nm, below this value
Protocol: Furthermore, a sharp decrease of transmittance was detectable around 300 nm wavelength and it fell to zero below this value.
Compositions suitable for therapeutic purposes were selected by the measurement of optical transmittance. Measurements were performed using a Helios a spectrophotometer in the wavelength range of 200-600 nm. FIGS. […] and 2 show optical transmittance spectra of Macrogol 400 and the spray formulation of the composition, respectively. FIG. 3 illustrates the optical transmittance spectrum of the gel formulation of the composition.

- transmittance around and below 300 nm wavelength: more pronounced
Structure (SMILES): O=C(O)c1cccnc1 [nicotinic acid]
